The target in one test is ß2 (Homo sapiens, UniProt P07550). Description: Block of ligand binding to β-adrenergic receptor, ß2. The settings on record: for IC50: read-out: Concentration (nM) To Block Binding of Ligand by 50% ß2; for inhibition at 10 µM: at 10,000 nM, 50% blockade not achieved at reasonable concentrations, read-out: % blocked at nM concentration shown ß2.
The target of the next test is ß1 (Homo sapiens, UniProt P08588). Briefly: Block of ligand binding to β-adrenergic receptor, ß1. The conditions noted are these: for IC50: read-out: Concentration (nM) To Block Binding of Ligand by 50% ß1; for inhibition at 10 µM: at 10,000 nM, 50% blockade not achieved at reasonable concentrations, read-out: % blocked at nM concentration shown ß1.
ß1, sequence (P08588 whole entry): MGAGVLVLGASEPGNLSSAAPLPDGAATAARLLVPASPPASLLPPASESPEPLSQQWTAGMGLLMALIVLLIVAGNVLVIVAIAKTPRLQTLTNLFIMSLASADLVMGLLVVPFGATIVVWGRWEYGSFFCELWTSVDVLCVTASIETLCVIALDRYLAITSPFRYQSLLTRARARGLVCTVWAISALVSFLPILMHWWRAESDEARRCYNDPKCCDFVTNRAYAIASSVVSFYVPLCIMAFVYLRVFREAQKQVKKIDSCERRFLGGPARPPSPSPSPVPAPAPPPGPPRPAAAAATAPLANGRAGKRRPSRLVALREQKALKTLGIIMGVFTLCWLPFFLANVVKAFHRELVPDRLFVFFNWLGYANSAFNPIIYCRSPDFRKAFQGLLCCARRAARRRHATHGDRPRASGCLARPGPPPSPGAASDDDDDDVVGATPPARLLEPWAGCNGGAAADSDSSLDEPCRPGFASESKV

ß2, sequence (P07550 whole entry): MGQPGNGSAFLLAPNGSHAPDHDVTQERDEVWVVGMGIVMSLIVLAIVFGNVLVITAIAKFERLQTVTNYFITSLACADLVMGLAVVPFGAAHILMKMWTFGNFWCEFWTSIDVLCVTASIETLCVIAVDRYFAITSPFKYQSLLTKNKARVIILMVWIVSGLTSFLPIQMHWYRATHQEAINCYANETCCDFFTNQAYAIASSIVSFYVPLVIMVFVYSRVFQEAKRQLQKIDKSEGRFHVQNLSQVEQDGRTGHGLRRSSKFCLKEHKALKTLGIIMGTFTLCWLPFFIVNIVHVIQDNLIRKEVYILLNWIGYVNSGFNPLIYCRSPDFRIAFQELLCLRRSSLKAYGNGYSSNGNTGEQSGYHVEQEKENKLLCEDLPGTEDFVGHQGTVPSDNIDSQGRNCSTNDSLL

For the compound `Cc1nc2c(c(N3CCNCC3)n1)SCCC2` [R^1 = -CH3, R^2 = H (the 1st table r1 drawing)], the IC50 is 314 nM at ß2 and 680 nM on ß1.

Turning to `CCN1CCN(c2nc(C)nc3c2SCCC3)CC1`, the IC50 at ß2 was 27000 nM. For the same compound, the inhibition at 10 µM on ß1 came to 3%.

Take `Cc1nc2c(c(N3CCNCC3)n1)CSC2` [R^1 = -CH3, R^2 = H (the 1st table r11 drawing)]: the IC50 at ß2 amounted to 340 nM; at ß1, 820 nM.

Take `Cc1nc2c(c(N3CCN(Cc4ccccc4)CC3)n1)SCCC2`: the inhibition at 10 µM on ß2 and at ß1 was 0% in each case.

`CCc1nc(N2CCN(C)CC2)c2sccc2n1`: the IC50 worked out at 1040 nM at ß2 and 2400 nM at ß1.

In the case of `CCc1nc(N2CCNCC2)c2sccc2n1` [R^1 = -C2H5, R^2 = H (the 2nd table r0 drawing)], the IC50 on ß2 was 140 nM; at ß1 it was 300 nM.

On to `Cc1nc2c(c(N3CCN(C)CC3)n1)CSC2`, for which the inhibition at 10 µM on ß2 was 24%; on ß1, 15%.

Regarding `CCCCc1nc2c(c(N3CCN(C)CC3)n1)SCCC2`, the IC50 on ß2 came out at 4800 nM; at ß1, 4300 nM.

Turning to `Cc1nc2c(c(N3CCN(C4CC4)CC3)n1)SCCC2`, the inhibition at 10 µM at ß2 turned out to be 8%; at ß1, 6%.

(Values after patent EP0276057B1, “Piperazinylpyrimidines as beta-adrenergic receptor blocking agents” (Merck & Co., Inc., priority 1987, dated 1988).)
